Results reported in patent US20220213144A1, “HALOGENATED ANTIMICROBIAL PEPTOIDS” (priority 2019, published 2022).
Converted amounts (≈) assume the structure as drawn. Where two headings read alike, the source gives them in different places. Square brackets hold non-standard residues; d marks the D form. Peptide text beside a SMILES is read from it. N(4-Br-benzyl)Gly = O=C(O)CNCc1ccc(Br)cc1; Nspe = C[C@H](NCC(=O)O)c1ccccc1; Nphe = O=C(O)CNCc1ccccc1; Nlys = NCCCCNCC(=O)O

What was measured:
[1] = Small angle X-ray scattering, critical aggregation concentration from fit; type: physicochemical; details: Table 2; 10-mers, SAXS at ESRF, model fit
Method: SAXS experiments of the 10-mer peptoids were performed on the automated BM29 bioSAXS beamline at the European Synchrotron Radiation Facility (ESRF) in Grenoble, France. The data was obtained using an energy of 12.5 keV and a detector distance of 2.87 m, covering a q range (q=4π sin(θ/2)/λ), where θ is the scattering angle and λ is the X-ray wavelength) of about 0.0047 Å-1 to 0.5 Å-1. The data set was calibrated to an absolute intensity scale using water as a primary standard. Samples (40 μL) were run through a capillary using the flow mode of the automated sample changer. SAXS data was collected in ten successive frames of 0.5 s each to monitor radiation damage, and the data reduction was done using the standard tool at BM29.
The SAXS experiments on the fully iodinated 6-, 8-, and 12-mers to determine the CAC of the compounds were performed using a Bruker NANOSTAR equipped with a microfocus X-ray source (IμS Cu, Incoatec, Germany) and a VANTEC-2000 detector. Raw scattering data was calibrated to absolute intensity scale using water as a primary standard and radially averaged in order to obtain the 1D scattered intensity profile as a function of the scattering vector, with a wavelength of 1.54 Å.
where fagg is the fraction of peptoid chains aggregated in bundles, allowing for calculation of a CAC from ϕCAC=ϕ−(fagg*ϕ).

[2] = test system: S. aureus and S. epidermidis; type: cell-based, Staphylococcus aureus, Staphylococcus epidermidis; details: span over the Gram-positive strains
Method: (§1) Bacterial growth inhibition was determined by using broth microdilution according to the Clinical Laboratory Standards Institute. The antibacterial activity of peptoids was tested against S. aureus ATCC 25923, ATCC29213, and methicillin resistant S. aureus USA 300, methicillin resistant S. epidermidis ATCC 51625, a biofilm producing methicillin resistant S. epidermidis […], P. aeruginosa Pa01 (H103), and E. coli ATCC 25922. Bacteria, grown on agar plates for 18 hours at 37° C., were diluted to ˜1×10^8 CFU/mL in Mueller-Hinton Broth II (MHB II). Twofold serial dilutions of peptoids in MHB II were inoculated with the bacteria to achieve a final concentration of 5×10^5 CFU/mL in polypropylene 96 U-well microtiter plates (Corning™ 3897; ThermoFisher Scientific, Roskilde), followed by incubation at 37° C. in ambient air for 18 hours. The MIC values were determined as the lowest concentration showing no visible bacterial growth. Experiments were performed twice (in technical triplicates) on different days.

S. aureus ATCC 25923 = type: cell-based, Staphylococcus aureus; details: S. aureus ATCC 25923
Method: as §1

[3] = test system: methicillin-resistant S. aureus USA 300; type: cell-based, Staphylococcus aureus
Method: as §1

[4] = test system: methicillin-restant S. epidermidis ATCC 51625; type: cell-based, Staphylococcus epidermidis; details: S. epidermidis ATCC 51625
Method: as §1

[5] = test system: methicillin-restant S. epidermidis ET-024; type: cell-based, Staphylococcus epidermidis; details: S. epidermidis ET-024
Method: as §1

E. coli ATCC 25922 = type: cell-based, Escherichia coli
Method: as §1

P. aeruginosa PA01 = type: cell-based, Pseudomonas aeruginosa; details: P. aeruginosa PA01 H103
Method: as §1

[6] = Cell viability assay (MTS/PMS), HaCaT cell line; type: cell-based; details: human, text b151, read-out: IC50 (cytotoxicity, HaCaT)
Method: An immortalized human keratinocytes (HaCaT) cell line (Gift from David Gram Naym at Bispebjerg Hospital) was cultured to ˜90% confluence after 21-25 h of growth under standard conditions (5% CO2/95% 02 at 37° C.). Cells were cultured in Dulbecco's Modified Eagle's Medium supplemented with 10% (v/v) fetal bovine serum (FBS). All culture media were supplemented with penicillin (100 IU/mL) and streptomycin (100 μg/mL). All cell media and supplements were obtained from Sigma-Aldrich (St. Louis, Mo., United States). The 96-well plates were obtained from Corning Costar (Sigma-Aldrich, Brondby, Denmark).
Cell viability assessment was performed on cell monolayers grown to ˜90% confluence in 96-well plates using the MTS/PMS assay as previously described. Briefly, the adhered cells were washed with 37° C. PBS solution (ThermoFisher Scientific, Roskilde) and exposed for 1 h at 37° C. to 100 μL of peptoid dissolved in the medium also used for culturing of the cell line (at concentrations in the range 0-1000 μg/mL). The cells were then washed twice with 37° C. PBS. […] A plate reader (SpectraMax i3X; Molecular devices, San Jose, Calif.) was used to measure the absorbance at 492 nm. The relative viability was calculated by using 0.2% (w/v) sodium dodecyl sulfate (SDS) as the positive control, while cells exposed to medium without test compound were used as the negative control. […]

[7] = intraperitoneal; Czyzewski et al. 2016; cited from earlier work
[8] = in words; cited from earlier work

NCCCCNCC(=O)N(CC(=O)N(CCCCN)CC(=O)N(CC(=O)N(CCCCN)CC(=O)N(CC(=O)N(CCCCN)CC(=O)N(CC(=O)N(CCCCN)CC(=O)N(CC(N)=O)Cc1ccc(Br)cc1)Cc1ccccc1)Cc1ccc(Br)cc1)Cc1ccccc1)Cc1ccc(Br)cc1 [Compound 26] (H-[Nlys][N(4-Br-benzyl)Gly][Nlys][Nphe][Nlys][N(4-Br-benzyl)Gly][Nlys][Nphe][Nlys][N(4-Br-benzyl)Gly]-NH2)
CAC [1]: >5 mg/mL | MICs [2]: 1 to 8 µg/mL

C[C@@H](c1ccccc1)N(CC(N)=O)C(=O)CN(C(=O)CN(CCCCN)C(=O)CN(C(=O)CN(C(=O)CN(CCCCN)C(=O)CN(C(=O)CN(C(=O)CN(CCCCN)C(=O)CN(C(=O)CN(C(=O)CNCCCCN)[C@@H](C)c1ccccc1)[C@@H](C)c1ccccc1)[C@@H](C)c1ccccc1)[C@@H](C)c1ccccc1)[C@@H](C)c1ccccc1)[C@@H](C)c1ccccc1)[C@@H](C)c1ccccc1 [Peptoid 1, H-(NLys-Nspe-Nspe)4-NH2] (H-[Nlys][Nspe][Nspe][Nlys][Nspe][Nspe][Nlys][Nspe][Nspe][Nlys][Nspe][Nspe]-NH2)
MIC SA^a (S. aureus ATCC 25923; Table 4): 8 µg/mL (≈ 4.4 µM) | MIC SA^a (S. aureus ATCC 25923; Table 5): 8 µg/mL (≈ 4.4 µM) | MIC MRSA^b ([3]; Table 4): 8 µg/mL (≈ 4.4 µM) | MIC MRSA^b ([3]; Table 5): 8 µg/mL (≈ 4.4 µM) | MIC MRSE^d ([4]; Table 4): 8 µg/mL (≈ 4.4 µM) | MIC MRSE^d ([4]; Table 5): 8 µg/mL (≈ 4.4 µM) | MIC MRSE^c ([5]; Table 4): 4 µg/mL (≈ 2.2 µM) | MIC MRSE^c ([5]; Table 5): 4 µg/mL (≈ 2.2 µM) | MIC EC^e (E. coli ATCC 25922; Table 4): 8 µg/mL (≈ 4.4 µM) | MIC EC^e (E. coli ATCC 25922; Table 5): 8 µg/mL (≈ 4.4 µM) | MIC PA^f (P. aeruginosa PA01; Table 4): 16 µg/mL (≈ 8.79 µM) | MIC PA^f (P. aeruginosa PA01; Table 5): 16 µg/mL (≈ 8.79 µM) | IC50 at 1 h [6]: 35 µg/mL (≈ 19.2 µM) | tolerability intraperitoneally in vivo [7]: reasonably well tolerated | cytotoxicity in vitro [8]: relatively high cytotoxicity
